Data reported in patent US20100041089A1, “IMPROVED METHOD FOR DETECTING CHEMICAL […]” (priority 2006, published 2010).

Test system: yeast genes (expressed mRNA)
Experiment: DNA chip measurement of expressed mRNA of yeast genes after culture with a toxic chemical substance
Format: cell-based, Saccharomyces cerevisiae S288C
Settings: for level of expressed mRNA in the presence of chemical substance / level in the absence of chemical substance: cultured two hours with the chemical substance; for The level of expressed mRNA in the presence of chemical substance/The level of expressed mRNA in the absence of chemical substance: cultured two hours with substance
Protocol: Yeast (Saccharomyces cerevisiae S288C (a SUC2mal mel gap2 CUP1)) were cultured at 25° C. on YPD medium (yeast extract 1%, polypeptone 2%, glucose 2%). One of toxic chemical substances was added to the cell at logarithmic growth phase, and the cell was further cultured for two hours. Cell was cultured without any chemical substance in the same condition, and was used as a control. Concentrations of the chemical substances were defined to inhibit the growth of the yeast but not lead to death.
After the completion of cultivation, the culture was centrifuged to collect the cells. To the cells, sodium acetate buffer (50 mM sodium acetate, 10 mM EDTA, 1% SDS) was added, and the mixture was shaken at 65° C. for five minutes, followed by returning to room temperature, and obtaining the supernatant, which procedure was repeated two times. To the supernatant, ½ amount of a solution of phenol/chloroform (1:1) was added, and the mixture was centrifuged to give a supernatant, an equal amount of chloroform was added, and the mixture was centrifuged to give a supernatant. To the supernatant, an equal amount of isopropanol containing 0.3 M sodium acetate was added, and the mixture was allowed to stand at room temperature for 30 minutes, after which the mixture was centrifuged to give sediment of the whole RNAs. Seventy % ethanol was added to the sediment, and the mixture was again centrifuged to give sediment, which was then dried and dissolved in water. mRNA was isolated from the whole RNAs as followings. In view of the fact that a poly A chain is attached to the 3′ terminus of mRNA, a polynucleotide having a poly T structure which was immobilized on the surface of latex beads was used to trap the mRNA, and then the mRNA was washed and eluted with spine column (Oligotex-dT30<Super>mRNA Purification Kit, Takara). Reverse transcription of the mRNA was conducted with a reverse transcriptase (Super Script II Reverse Transcriptase; catalogue No. 18064-014, GibcoBRL) using fluorescence-labeled nucleotides to give cDNAs that were introduced with Cy3-dUTP or Cy5-dUTP during the reverse transcription.
The labeled cDNAs were dissolved in TE buffer (10 mM Tris-HCl/1 mM EDTA, pH 8.0), and the solution was dropped on the DNA chip containing the whole genes of yeast (DNA Chip Research Inc. Japan) so that the cDNAs were hybridized on the DNA chip at 65° C. for over 12 hours. The fluoresces intensity of the DNA chip was read with a scanner, and the ratio relative to the fluorescence intensity resulting from the absence of chemical substance was estimated as the following, which is shown in Tables 1 to 9.
In the Tables, “Intensity” indicated in the rightmost column is a value of the level of expressed mRNA of each gene in control cells as divided by the average level of the expressions of the whole genes. A gene of which mRNA level is lower in control, and is higher in cases of addition of chemical substance, is especially useful in the detection of toxic substances.
Here, when a ratio of an amount of mRNA expressed in the presence of the chemical substance to an amount of mRNA expressed in the absence of the chemical substance is two or more, then it is considered significant.

Manganese ethylenebis(dithiocarbamate) [(8)]
level of expressed mRNA in the presence of chemical substance / level in the absence of chemical substance (yeast gene YDR128W): 1.1
level of expressed mRNA in the presence of chemical substance / level in the absence of chemical substance (yeast gene YDR133C): 0.5
level of expressed mRNA in the presence of chemical substance / level in the absence of chemical substance (yeast gene YDR250C): 1.1
level of expressed mRNA in the presence of chemical substance / level in the absence of chemical substance (yeast gene YDR278C): 0.5
level of expressed mRNA in the presence of chemical substance / level in the absence of chemical substance (yeast gene YDR281C): 1.2
The level of expressed mRNA in the presence of chemical substance/The level of expressed mRNA in the absence of chemical substance (yeast gene YDR330W): 1.1
level of expressed mRNA in the presence of chemical substance / level in the absence of chemical substance (yeast gene YDR366C): 1.1
The level of expressed mRNA in the presence of chemical substance/The level of expressed mRNA in the absence of chemical substance (yeast gene YDR411C): 0.9
The level of expressed mRNA in the presence of chemical substance/The level of expressed mRNA in the absence of chemical substance (yeast gene YDR511W): 1.7
The level of expressed mRNA in the presence of chemical substance/The level of expressed mRNA in the absence of chemical substance (yeast gene YDR545W): 0.6
The level of expressed mRNA in the presence of chemical substance/The level of expressed mRNA in the absence of chemical substance (yeast gene YEL001C): 1.2
The level of expressed mRNA in the presence of chemical substance/The level of expressed mRNA in the absence of chemical substance (yeast gene YER004W): 1.1
The level of expressed mRNA in the presence of chemical substance/The level of expressed mRNA in the absence of chemical substance (yeast gene YER035W): 1.2
The level of expressed mRNA in the presence of chemical substance/The level of expressed mRNA in the absence of chemical substance (yeast gene YER079W): 1.4
The level of expressed mRNA in the presence of chemical substance/The level of expressed mRNA in the absence of chemical substance (yeast gene YER106W): 1.2
The level of expressed mRNA in the presence of chemical substance/The level of expressed mRNA in the absence of chemical substance (yeast gene YER158C): 0.9
The level of expressed mRNA in the presence of chemical substance/The level of expressed mRNA in the absence of chemical substance (yeast gene YER163C): 1.4
The level of expressed mRNA in the presence of chemical substance/The level of expressed mRNA in the absence of chemical substance (yeast gene YER175C): 1.1
The level of expressed mRNA in the presence of chemical substance/The level of expressed mRNA in the absence of chemical substance (yeast gene YFL006W): 1.0
The level of expressed mRNA in the presence of chemical substance/The level of expressed mRNA in the absence of chemical substance (yeast gene YFL010C): 1.0
The level of expressed mRNA in the presence of chemical substance/The level of expressed mRNA in the absence of chemical substance (yeast gene YFL024C): 0.9
The level of expressed mRNA in the presence of chemical substance/The level of expressed mRNA in the absence of chemical substance (yeast gene YFL032W): 0.4
level of expressed mRNA in the presence of chemical substance / level in the absence of chemical substance (yeast gene YFR026C): 1.3
The level of expressed mRNA in the presence of chemical substance/The level of expressed mRNA in the absence of chemical substance (yeast gene YGL037C): 1.2
The level of expressed mRNA in the presence of chemical substance/The level of expressed mRNA in the absence of chemical substance (yeast gene YGL047W): 1.1
The level of expressed mRNA in the presence of chemical substance/The level of expressed mRNA in the absence of chemical substance (yeast gene YGL053W): 1.2
level of expressed mRNA in the presence of chemical substance / level in the absence of chemical substance (yeast gene YGL088W): 0.5
The level of expressed mRNA in the presence of chemical substance/The level of expressed mRNA in the absence of chemical substance (yeast gene YGL121C): 3.0
The level of expressed mRNA in the presence of chemical substance/The level of expressed mRNA in the absence of chemical substance (yeast gene YGL199C): 0.7
level of expressed mRNA in the presence of chemical substance / level in the absence of chemical substance (yeast gene YGR038W): 0.7
The level of expressed mRNA in the presence of chemical substance/The level of expressed mRNA in the absence of chemical substance (yeast gene YGR101W): 0.8
The level of expressed mRNA in the presence of chemical substance/The level of expressed mRNA in the absence of chemical substance (yeast gene YGR110W): 1.5
The level of expressed mRNA in the presence of chemical substance/The level of expressed mRNA in the absence of chemical substance (yeast gene YGR130C): 0.9
level of expressed mRNA in the presence of chemical substance / level in the absence of chemical substance (yeast gene YGR139W): 0.6
The level of expressed mRNA in the presence of chemical substance/The level of expressed mRNA in the absence of chemical substance (yeast gene YGR154C): 1.7
The level of expressed mRNA in the presence of chemical substance/The level of expressed mRNA in the absence of chemical substance (yeast gene YGR221C): 1.1
level of expressed mRNA in the presence of chemical substance / level in the absence of chemical substance (yeast gene YGR243W): 1.3
level of expressed mRNA in the presence of chemical substance / level in the absence of chemical substance (yeast gene YGR293C): 1.3
level of expressed mRNA in the presence of chemical substance / level in the absence of chemical substance (yeast gene YHL006C): 1.1
level of expressed mRNA in the presence of chemical substance / level in the absence of chemical substance (yeast gene YHR095W): 1.0
level of expressed mRNA in the presence of chemical substance / level in the absence of chemical substance (yeast gene YHR105W): 1.0
The level of expressed mRNA in the presence of chemical substance/The level of expressed mRNA in the absence of chemical substance (yeast gene YHR138C): 1.4
level of expressed mRNA in the presence of chemical substance / level in the absence of chemical substance (yeast gene YHR181W): 0.9
The level of expressed mRNA in the presence of chemical substance/The level of expressed mRNA in the absence of chemical substance (yeast gene YHR199C): 1.0
The level of expressed mRNA in the presence of chemical substance/The level of expressed mRNA in the absence of chemical substance (yeast gene YIL023C): 0.7
The level of expressed mRNA in the presence of chemical substance/The level of expressed mRNA in the absence of chemical substance (yeast gene YIL041W): 0.9
The level of expressed mRNA in the presence of chemical substance/The level of expressed mRNA in the absence of chemical substance (yeast gene YIL087C): 1.1
level of expressed mRNA in the presence of chemical substance / level in the absence of chemical substance (yeast gene YIL127C): 1.2
level of expressed mRNA in the presence of chemical substance / level in the absence of chemical substance (yeast gene YJL017W): 1.0
level of expressed mRNA in the presence of chemical substance / level in the absence of chemical substance (yeast gene YJL037W): 1.2
The level of expressed mRNA in the presence of chemical substance/The level of expressed mRNA in the absence of chemical substance (yeast gene YJL057C): 1.5
The level of expressed mRNA in the presence of chemical substance/The level of expressed mRNA in the absence of chemical substance (yeast gene YJL066C): 0.8
The level of expressed mRNA in the presence of chemical substance/The level of expressed mRNA in the absence of chemical substance (yeast gene YJL082W): 0.9
